7 compounds from patent US4820824A, “Mitomaycin compounds” (Kyowa Hakko Kogyo Kabushiki Kaisha, priority 1986, dated 1989) can be followed below.

Data set [1] has as its system Staphylococcus aureus ATCC6538P. Description: Antibacterial activity, agar dilution method (MIC), Staphylococcus aureus. The format is cell-based. Particulars: pH 7.0, read-out: Minimum inhibitory concentration (MIC), SA. The protocol:
(§1) Antibacterial activities of Compounds (I) against various microorganisms are shown in the following Table 5, in which the minimum inhibitory concentration MIC (μg/ml) was measured by the agar dilution method at a pH of 7.0.
(§2) In this table, the following abbreviations are used: SF-Streptococcus faecalis ATCC 10541; SA-Staphylococcus aureus ATCC6538P; BS-Bacillus subtilis 10707; PV-Proteus vulgaris ATCC6897; KP-Klebsiella pneumoniae ATCC10031.

Data set [2] concerns Streptococcus faecalis ATCC 10541. Description: Antibacterial activity, agar dilution method (MIC), Streptococcus faecalis. The format is cell-based. To be noted: Enterococcus faecalis, ATCC10541, pH 7.0, read-out: Minimum inhibitory concentration (MIC), SF. How it is done:
as §1, §2

The next data set relates to Bacillus subtilis 10707. Description: Antibacterial activity, agar dilution method (MIC), Bacillus subtilis. It is filed as cell-based. Particulars: pH 7.0, read-out: Minimum inhibitory concentration (MIC), BS. How it is done:
as §1, §2

The subject of data set [3] is Proteus vulgaris ATCC6897. Description: Antibacterial activity, agar dilution method (MIC), Proteus vulgaris. The format is cell-based. Particulars: pH 7.0, read-out: Minimum inhibitory concentration (MIC), PV. How it is done:
as §1, §2

For data set [4], the system named is Klebsiella pneumoniae ATCC10031. Description: Antibacterial activity, agar dilution method (MIC), Klebsiella pneumoniae. The format is cell-based. Particulars: pH 7.0, read-out: Minimum inhibitory concentration (MIC), KP. How it is done: as §1, §2
The subject of a further data set is Sarcoma 180 solid tumour. Description: Antitumour activity against Sarcoma 180 solid tumour. The format is in vivo, ddy male mouse. Particulars: for ED50: Mus musculus, Sarcoma-180, iv, 168 h; for C.I. (LD50/ED50): chemotherapeutic index LD50/ED50, Sarcoma 180, ddy mice. An excerpt:
(§3) Certain Compounds (I) and Sarcoma 180 solid tumour were used to determine, on each occasion, antitumour activity (ED50), acutee toxicity (LD50) and effect upon peripherical leucocytes (WBC4000), as shown Table 6.
5×10^6 cells of Sarcoma 180 solid tumour were abdominally implanted into a ddy mouce. 7 days after this, the cells were collected from the ascites fluid. The cells were washed once with physiological saline under sterile conditions and suspended in physiological saline to obtain a cell suspension containing 5×10^7 cells/ml, of which 0.1 ml was implanted into a ddy male mouce (body weight 20±2 g) under the skin of the right armpit. The test compound was dissolved in physiological saline or the same solution containing Tween 80. 24 hours after implantation of the tumour cells, 0.1-0.2 ml of the solution containing the test compound was administered to the tail vein of each animal in the test group consisting of 5 animals. 7 days after the implantation, the major axis (a) and minor axis (b) of the tumour were measured to calculate the volume of the tumour as ("a"×"b^2 ")/2. The antitumour effect was indicated by T/C which is the ratio of the tumour volume in the test animals to the corresponding volume of the control (untreated) animals.
ED50 denotes the dosage capable of decreasing the volume of Sarcoma 180 solid tumour to 50% of the corresponding volume of the control animals. T/C ratios and the dose were respectively plotted on the ordinate using an arithmetic scale and on the abscissa using a logarithmic scale, the relationship between the dosage and the T/C ratio being converted to a straight line by the least squares method. From the straight tropic line thus-obtained, the dosage corresponding to a T/C=0.5 viz. ED50 was determined.

The next data set is described as follows: Acute toxicity. Particulars: mouse, in vivo, ip; ddy mice, single abdominal administration, 14 days observation, Behrens-Korber's method.
Description: as §3
The test compound was abdominally administered once to ddy mice, each group consisting of 5 animals.

For the next data set, the system named is peripheral leucocytes. Briefly: Effect upon peripheral leucocytes (bone marrow toxicity). To be noted: minimum dose decreasing peripheral leucocytes to 4000/mm^3; tumour-bearing ddy mice, intraperitoneal, blood 4 days later. It is filed as in vivo, male mice (ddy strain). How it is done: as §3
of peripheral leucocytes to 4000/mm^3.
Sarcoma 180 solid tumour cells (5×10^6) were subcutaneously implanted under the skin of the right armpit of each mouse (body weight 20±2 g) of a group consisting of 5 male mice (ddy strain). 24 hours after this, a test compound was intraperitoneally administered to each animal. 4 days later, blood (0.02 ml) was collected from the suborbital plexus vein of each tumour-carrying animal. The collected sample of blood was dispersed in 9.98 ml of Cellkit Seven solution. One drop of saponin solution was added to the sample to dissolve erythrocytes and then a microcell counter was used to measure the number of leucocytes. On graph paper, the number of leucocytes was plotted on the ordinate using an arithmetic scale, and the dosage was plotted on the abscissa using a logarithmic scale to show the relationship of the dosage to the number of peripherical leucocytes, from which the value of WBC4000 viz. a value capable of giving 4000 peripheral leucocytes per mm^3 (about half of the corresponding value in normal mice) was obtained.

A short description of a further data set: Water-solubility. It is filed as physicochemical.
Setting [5] is: dose giving T/C=0.5 tumour volume, single tail vein administration 24 hours after implantation, measured 7 days after implantation, read-out: ED50.

Structures are written as SMILES. ≈ marks a conversion by molar mass, not a printed value. Like-named read-outs stand apart in the source and are kept apart here. Some results are limits rather than exact numbers.

As for `CO[C@@]12[C@H](COC(N)=O)C3=C(C(=O)C(C)=C(N=S(c4ccccc4)c4ccccc4)C3=O)N1C[C@@H]1N[C@@H]12` [Compound 1, 7-demethoxy-7-diphenylsulfiliminomitomycin A], the MIC was 0.01 mg/L (≈ 0.0193 µM) in [1]; 0.02 mg/L (≈ 0.0386 µM) in [2]; less than 0.005 mg/L with Bacillus subtilis 10707; 0.63 mg/L (≈ 1.21 µM) in data set [3]; 0.16 mg/L (≈ 0.309 µM) in [4].

For `CC1=C(N=S(c2ccccc2)c2ccccc2)C(=O)C2=C(C1=O)N1C[C@H]3[C@H](N3C)[C@]1(O)[C@H]2COC(N)=O` (stereo partly shown) [Compound 2], the MIC turned out to be 0.78 mg/L (≈ 1.5 µM) in data set [1], 0.78 mg/L (≈ 1.5 µM) in [2], 0.2 mg/L (≈ 0.386 µM) with Bacillus subtilis 10707 and 25 mg/L (≈ 48.2 µM) in data set [4]. Besides, the ED50 in the data set on Sarcoma 180 solid tumour (setting [5]) stood at 89.1 mg/kg. Besides, the “C.I. (LD50/ED50)” value with Sarcoma 180 solid tumour was more than 2.2. The LD50 at 336 h in “Acute toxicity” was more than 200 mg/kg. In the data set on peripheral leucocytes, this compound returned a WBC4000 of more than 200 mg/kg.

As to `C=C1C2=C(C(=O)C(C)=C(N=S(c3ccccc3)c3ccccc3)C2=O)N2C[C@H]3[C@H](N3C)[C@]12O` (stereo partly shown) [Compound 3], the ED50 in the data set on Sarcoma 180 solid tumour (setting [5]) came to 132 mg/kg. In the data set with Sarcoma 180 solid tumour, the “C.I. (LD50/ED50)” value is listed as more than 1.5. This compound also gave an LD50 at 336 h in “Acute toxicity” of more than 200 mg/kg. In the data set on Bacillus subtilis 10707, the MIC was 0.63 mg/L (≈ 1.38 µM). In the data set on peripheral leucocytes, this compound returned a WBC4000 of more than 200 mg/kg.

On to `CO[C@@]12[C@H](COC(N)=O)C3=C(C(=O)C(C)=C(N=S(C)c4ccccc4)C3=O)N1C[C@@H]1N[C@@H]12` (stereo partly shown) [Compound 5, (E)-7-demethoxy-7-methylphenylsulfilimino mitomycin A], for which the ED50 with Sarcoma 180 solid tumour (setting [5]) worked out at 2.7 mg/kg. Moreover, the “C.I. (LD50/ED50)” value in the data set on Sarcoma 180 solid tumour amounted to 5.6. Moreover, the LD50 at 336 h in the data set “Acute toxicity” was 15 mg/kg. Besides, the WBC4000 in the data set on peripheral leucocytes was 4.1 mg/kg.

As for `CCS(CC)=NC1=C(C)C(=O)C2=C(C1=O)[C@@H](COC(N)=O)[C@@]1(OC)[C@H]3N[C@H]3CN21` [Compound 6], the solubility in the data set “Water-solubility” is more than 40 mg/mL. Besides, the MIC in data set [1] worked out at 0.039 mg/L (≈ 0.0923 µM); in data set [2] it was 0.078 mg/L (≈ 0.185 µM); in the data set on Bacillus subtilis 10707, 0.02 mg/L (≈ 0.0473 µM); in data set [3] it was 0.039 mg/L (≈ 0.0923 µM); in [4], 0.039 mg/L (≈ 0.0923 µM). In addition, in the data set on Sarcoma 180 solid tumour (setting [5]), the ED50 turned out to be 2.5 mg/kg. Besides, in the data set with Sarcoma 180 solid tumour, the “C.I. (LD50/ED50)” value was determined as 3.8. The LD50 at 336 h in “Acute toxicity” was determined as 9.4 mg/kg. For the same compound, the WBC4000 with peripheral leucocytes is listed as 5.6 mg/kg.

On to `CCS(CC)=NC1=C(C)C(=O)C2=C(C1=O)[C@H](COC(N)=O)[C@@]1(O)[C@@H]3[C@H](CN21)N3C` (stereo partly shown) [Compound 7], for which the MIC in data set [1] came out at 10 mg/L (≈ 23.7 µM); in [2] it was 20 mg/L (≈ 47.3 µM); in the data set on Bacillus subtilis 10707 it was 5 mg/L (≈ 11.8 µM); in data set [3], 20 mg/L (≈ 47.3 µM); in data set [4] it was 10 mg/L (≈ 23.7 µM).

Consider `CO[C@@]12[C@H](COC(N)=O)C3=C(C(=O)C(C)=C(N=P(c4ccccc4)(c4ccccc4)c4ccccc4)C3=O)N1C[C@@H]1N[C@@H]12` [Compound 9, 7-demethoxy-7-triphenylphosphiniminomitomycin A], for which the MIC in data set [1] was determined as 13 mg/L (≈ 21.9 µM); in [2], 13 mg/L (≈ 21.9 µM); in the data set on Bacillus subtilis 10707, 3.1 mg/L (≈ 5.21 µM); in data set [3], 25 mg/L (≈ 42 µM); in data set [4], 13 mg/L (≈ 21.9 µM). The same compound showed an ED50 in the data set with Sarcoma 180 solid tumour of 100 mg/kg. The “C.I. (LD50/ED50)” value in the data set on Sarcoma 180 solid tumour is listed as not below 1.0. Moreover, the LD50 at 336 h in “Acute toxicity” is more than 100 mg/kg. The same compound returned a WBC4000 in the data set on peripheral leucocytes of more than 100 mg/kg.
